The source of these data is US20250235411A1, “COMPOSITIONS AND METHODS FOR DELIVERY OF AGENTS” (Kernal Biologics, Inc., priority 2021, published 2025).

For one test, the system named is B6 albino mice. As to the kind of experiment: In vivo luciferase quantitation, Example 1 (IVIS, in vivo and ex vivo lung, liver, spleen). The conditions noted are these: lipid added at 50 mol % to liver targeting LNPs. Also noted: species or system mouse. As for the experimental part:
Luciferase mRNA was formulated in LNPs containing a cationic ionizable lipid LIP001, cholesterol, DSPC, and PEG-DMG, in the presence or absence of the cationic lipid or cationic ionizable lipid pKa>7 according to the following molar ratios:
(§1) The ratio of the sum of ionizable amines and cationic quaternary ammonium ions to mRNA phosphates was 6. Lipids were dissolved in ethanol and mRNA was dissolved in 50 mM Citrate buffer pH 5.0. The organic and aqueous phases were combined at a flow rate of 12 mL/min on a Precision Nanosystems NanoAssemblr at a ratio of 3:1 (aqueous: organic). The product was immediately diluted to 16.5% ethanol using MilliQ water. The diluted product was dialyzed against a volume of 50 mM Tris pH 7.5 45 mM NaCl that was 200-fold in excess. The dialyzed product was concentrated using Amicon Ultra 100 kDa centrifuge tubes and sterile filtered. mRNA concentration and encapsulation was assessed by the Invitrogen Ribogreen assay.
LNPs were administered to B6 albino mice via the tail vein at a dose of 0.3 mg/kg. After six hours bioluminescence was measured using an IVIS Spectrum imager. Mice were treated with 150 mg/kg luciferin substrate administered via intraperitoneal injection. Immediately following the in vivo image mice were euthanized and the lung, liver and spleen were harvested for ex vivo imaging.

A further test relates to BALB/c mice. As to the kind of experiment: In vivo luciferase quantitation, Example 4 (cationic ionizable lipid pKa>7 LNPs). Also noted: species or system mouse. To be noted: LIP021 LNPs with LIP001 or without lipid <7 pKa. As for the experimental part: as §1, with “phosphates in the LNP” for “phosphates”, “300-fold” for “200-fold”
LNPs were administered to BALB/c mice via the tail vein at a dose of 0.5 mg/kg. After eighteen hours bioluminescence was measured using an IVIS Spectrum imager. Mice were treated with 150 mg/kg luciferin substrate administered via intraperitoneal injection. Immediately following the in vivo image mice were euthanized and the lung, liver and spleen were harvested for ex vivo imaging.

With `CC(C)CCC[C@@H](C)[C@H]1CC[C@H]2[C@@H]3CC=C4C[C@@H](OC(=O)NCCN(C)C)CC[C@]4(C)[C@H]3CC[C@]12C.Cl` [DC Cholesterol, DC- Cholesterol], the “shift of distribution of luciferase expression to the lungs” value in the test with B6 albino mice is reported as about 40 fold.
For `CCCCC/C=C\C/C=C\CCCCCCCC(=O)OCC(COC(=O)CCC(OCCCCCCCC)OCCCCCCCC)COC(=O)NCCCN1CCC(O)CC1` (centres unmarked) [LIP021, 3-((4,4-bis(octyloxy)butanoyl)oxy)-2-((((3-(4-hydroxy-piperidin-1-yl)propyl)carbamoyl)oxy)methyl) propyl (9Z,12Z)-octadeca-9,12-dienoate], the “lung targeting, ex vivo bioluminescence (FIG. 10-11)” value in the test with BALB/c mice is “does not exhibit a lung-targeting effect”.
